Experimental findings from ChEMBL document CHEMBL3875152, “Synthesis and evaluation against Leishmania amazonensis of novel pyrazolo[3,4-d]pyridazinone-N-acylhydrazone-(bi)thiophene hybrids” (Eur J Med Chem, 2016) are described below.

Data set [1] has as its system Leishmania amazonensis. Kind of data set: Antileishmanial activity against Leishmania amazonensis WHOM/BR/75/JOSEFA promastigotes after 72 hrs by Neubauer chamber method. It counts as functional.
The nature of data set [2]: Selectivity index, ratio of CC50 for mouse L929 cells to IC50 for Leishmania amazonensis WHOM/BR/75/JOSEFA promastigotes. It counts as functional.
Data set [3] in a line: Cytotoxicity against mouse L929 cells assessed as decrease in cell viability after 48 hrs by MTT method. The format is toxicity. A general note: Tetrazolium dyes change colour on reduction, which living cells bring about.
A short description of data set [4]: Selectivity index, ratio of CC50 for mouse L929 cells to IC50 for Leishmania amazonensis WHOM/BR/75/JOSEFA axenic amastigotes. The format is functional.
Data set [5] in a line: Cytotoxicity against mouse J774A1 cells assessed as decrease in cell viability after 48 hrs by MTT method. It counts as toxicity, J774.A1.
Data set [6] is described as follows: Selectivity index, ratio of CC50 for mouse J774A1 cells to IC50 for Leishmania amazonensis WHOM/BR/75/JOSEFA axenic amastigotes. The format is functional, J774.A1.
The nature of data set [7]: Selectivity index, ratio of CC50 for mouse J774A1 cells to IC50 for Leishmania amazonensis WHOM/BR/75/JOSEFA promastigotes. The format is functional, J774.A1.
Data set [8] relates to Leishmania amazonensis. Kind of data set: Antileishmanial activity against Leishmania amazonensis WHOM/BR/75/JOSEFA axenic amastigotes after 72 hrs by Neubauer chamber method. The format is functional.

Some results are limits rather than exact numbers.

Regarding `NNC(=O)c1n[nH]c(=O)c2[nH]ncc12`, the half-maximal inhibitory concentration (IC50) (commonly the concentration that gives 50% inhibition) in the data set with Leishmania amazonensis [1] was more than 100 µM.
Same read-out and setting: the result for `O=C(N/N=C/c1cccs1)c1nn(-c2ccc(Cl)cc2)c(=O)c2c1cnn2-c1ccc(Cl)cc1` reads more than 100 µM; that for `O=C(N/N=C/c1cccs1)c1n[nH]c(=O)c2c1cnn2-c1ccccc1`, more than 100 µM.
For the molecule `NNC(=O)c1n[nH]c(=O)c2c1cnn2-c1ccc(Cl)cc1`, the half-maximal inhibitory concentration (IC50) in the data set with Leishmania amazonensis [1] was more than 100 µM.
The molecule `NNC(=O)c1nn(-c2ccc(Cl)cc2)c(=O)c2c1cnn2-c1ccc(Cl)cc1` showed an IC50 in the data set on Leishmania amazonensis [1] of more than 100 µM.
For `O=C(N/N=C/c1ccc(-c2cccs2)s1)c1nn(-c2ccccc2)c(=O)c2c1cnn2-c1ccccc1`, the “Ratio CC50/IC50” value in data set [2] is 21.33; in data set [4], 33.38; in data set [6], more than 82.48; in data set [7], more than 52.71. For the same molecule, the values for the cytotoxic concentration (CC50) at 48 h in data set [3] and in data set [5] were 77.4 µM and more than 191 µM, respectively. The 50% inhibitory concentration (IC50) was determined as 3.63 µM in the data set with Leishmania amazonensis [1] and 2.32 µM in the data set on Leishmania amazonensis [8].
With `O=C(N/N=C/c1cccs1)c1nn(-c2ccccc2)c(=O)c2c1cnn2-c1ccccc1`, the “Ratio CC50/IC50” value in data set [2] amounted to 2.19; in data set [4], 5.68; in data set [6] it was 3.25; in data set [7] it was 1.25. The results for the 50% cytotoxic concentration (CC50) at 48 h in data set [3] and in data set [5] were 186 µM and 106 µM, respectively. For the same molecule, the 50% inhibitory concentration (IC50) in the data set with Leishmania amazonensis [1] was found to be 85 µM; in the data set with Leishmania amazonensis [8], 32.7 µM.
For the molecule `O=C(N/N=C/c1ccc(-c2cccs2)s1)c1nn(-c2ccc(Cl)cc2)c(=O)c2c1cnn2-c1ccccc1`, the half-inhibitory concentration (IC50) in the data set on Leishmania amazonensis [1] is more than 100 µM.
On the same count and under the same terms, the result for `O=C(N/N=C/c1ccc(-c2cccs2)s1)c1n[nH]c(=O)c2c1cnn2-c1ccc(Cl)cc1` reads more than 100 µM; that for `O=C(N/N=C/c1ccc(-c2cccs2)s1)c1n[nH]c(=O)c2[nH]ncc12`, more than 100 µM; that for `O=C(N/N=C/c1ccc(-c2cccs2)s1)c1nn(-c2ccc(Cl)cc2)c(=O)c2c1cnn2-c1ccc(Cl)cc1`, more than 100 µM.
The same measure, in the same setting: the result for `CN(/N=C/c1ccc(-c2cccs2)s1)C(=O)c1nn(-c2ccccc2)c(=O)c2c1cnn2-c1ccccc1` reads more than 100 µM; that for `NNC(=O)c1nn(-c2ccc(Cl)cc2)c(=O)c2c1cnn2-c1ccccc1`, more than 100 µM; that for `O=C(N/N=C/c1cccs1)c1nn(-c2ccc(Cl)cc2)c(=O)c2c1cnn2-c1ccccc1`, more than 100 µM.
As to `O=C(N/N=C/c1ccc(-c2cccs2)s1)c1nn(-c2ccccc2)c(=O)c2c1cnn2-c1ccc(Cl)cc1`, the IC50 in the data set with Leishmania amazonensis [1] was more than 100 µM.
Regarding `O=C(N/N=C/c1cccs1)c1n[nH]c(=O)c2c1cnn2-c1ccc(Cl)cc1`, the concentration for half-maximal inhibition (IC50) with Leishmania amazonensis [1] is more than 100 µM.
Consider `O=C(N/N=C/c1ccc(-c2cccs2)s1)c1n[nH]c(=O)c2c1cnn2-c1ccccc1`, for which the half-maximal cytotoxic concentration (CC50) (as a rule, the concentration at which the toxic effect on the cells reaches its halfway point) at 48 h in data set [3] was less than 1 µM; in data set [5] it was 114 µM. In addition, the half-maximal inhibitory concentration (IC50) was 10.8 µM with Leishmania amazonensis [1] and more than 100 µM with Leishmania amazonensis [8]. Moreover, the “Ratio CC50/IC50” value in data set [7] is recorded as 10.6.
Turning to `O=C(N/N=C/c1cccs1)c1nn(-c2ccccc2)c(=O)c2c1cnn2-c1ccc(Cl)cc1`, the IC50 with Leishmania amazonensis [1] was more than 100 µM.
Same read-out and setting: the result for `NNC(=O)c1nn(-c2ccccc2)c(=O)c2c1cnn2-c1ccc(Cl)cc1` reads more than 100 µM; that for `O=C(N/N=C/c1cccs1)c1n[nH]c(=O)c2[nH]ncc12`, more than 100 µM.
As to `C[C@@H]1[C@H](O)[C@@H](C)/C=C/C=C/C=C/C=C/C=C/C=C/C=C/[C@H](O[C@@H]2O[C@H](C)[C@@H](O)[C@H](N)[C@@H]2O)C[C@@H]2O[C@](O)(C[C@@H](O)C[C@@H](O)[C@H](O)CC[C@@H](O)C[C@@H](O)CC(=O)O[C@H]1C)C[C@H](O)[C@H]2C(=O)O` [AMPHOTERICIN B], the results for the “Ratio CC50/IC50” value in data set [2] and in data set [7] were 123.64 and 26.25, respectively. Further, the CC50 at 48 h in data set [3] is 79.1 µM; in data set [5] it was 16.8 µM. The molecule further gave an IC50 with Leishmania amazonensis [1] of 0.64 µM.
Consider `NNC(=O)c1n[nH]c(=O)c2c1cnn2-c1ccccc1`, for which, in the data set on Leishmania amazonensis [1], the half-inhibitory concentration (IC50) was more than 100 µM.
On the same count and under the same terms, the result for `NNC(=O)c1nn(-c2ccccc2)c(=O)c2c1cnn2-c1ccccc1` reads more than 100 µM.
